Like-named read-outs stand apart in the source and are kept apart here.
What was measured:
T. gondii = details: cited from earlier work
T. gondii oocysts = test system: T. gondii oocysts; parameters: method as in Müller et al., 2017b; details: 50 mg/kg/day for 5 days; ref Müller et al., 2017b; cited from earlier work
N. caninum = details: 50 mg/kg/day for 6 days; ref Winzer et al., 2015; cited from earlier work
Nc-β-gal tachyzoites = assay: In vitro proliferation assay with N. caninum β-gal tachyzoites in HFF monolayers; type: cell-based, Neospora caninum; details: read at 72 h post-infection
Experimental: (§1) N. caninum strain NcSpain-7 and the transgenic strain N. caninum Nc1 expressing β-galactosidase (Nc-β-gal) were grown and maintained in HFF ([Aguado-Martínez et al., 2016]). T. gondii ME49 and T. gondii β-gal tachyzoites (RH background, Tg-β-gal) were cultured as previously described ([Winzer et al., 2015]). T. gondii oocysts of the type II isolate T. gondii sheep Spain 1 (TgShSp1) were generated at the Complutense University of Madrid, Spain, and were stored at 4 °C ([Sánchez-Sánchez et al., 2019]).
(§2) The effects of the compound on HFF viability were assessed by resazurin reduction assay, following the protocols of previous studies ([Anghel et al., 2020]).

[1] = test system: N. caninum NcSpain-7 tachyzoites; details: in vivo
Experimental: A total of 57 BALB/c mice were used: 38 females and 19 males, all 8 weeks old. […] For the infection, NcSpain-7 tachyzoites were cultured in HFF at 37 °C/5% CO₂ and transferred to BALB/c fibroblasts to be grown under the same conditions for three days prior to infection. Parasites were then collected and counted, and each mouse was infected by subcutaneous injection with 10⁵ NcSpain-7 tachyzoites suspended in 100 μL PBS ([Arranz-Solís et al., 2015]). Infection took place on day 7 post-mating. Pregnant and non-pregnant mice were separated as described for the toxoplasmosis model and evaluated for clinical signs and mortality rates. Pregnant mice gave birth on days 20–23 post-mating. […]
Brains of adult mice and surviving pups were collected directly after sacrifice and parasitic load was quantified by real-time PCR specific for T. gondii ([Costa et al., 2000]) and N. caninum ([Müller et al., 2002]). […] DNA was extracted from all samples using the Nucleospin Kit (Macherey-Nagel, Oensingen, Switzerland) and QuantiFluor dsDNA System (Promega, Madison, Wi, USA) was used to determine the DNA concentration. […] Quantitative real-time PCR was performed using the Light Cycler® System (Roche, Basel, Switzerland). Parasite load was calculated by interpolation from a standard curve of DNA samples from 1000, 100 and 10 T. gondii or N. caninum tachyzoites included in each run. […]

Tg-β-gal tachyzoites = assay: In vitro proliferation assay with T. gondii β-gal tachyzoites in HFF monolayers; type: cell-based, Toxoplasma gondii; details: read at 72 h post-infection
Experimental: as §1, §2

Structure (SMILES): CC(C)(C)n1nc(Cc2cccc3ccccc23)c2c(N)ncnc21 [1NM-PP1]
- Morphological effect on T. gondii (T. gondii; ref Sugi et al., 2016): Multinucleated forms

Structure (SMILES): CCOc1ccc2cc(-c3nn(CC4CCN(C)CC4)c4ncnc(N)c34)ccc2c1 [BKI-1294]
- Pups with detectable T. gondii DNA in their brain (%) (T. gondii oocysts): 7%
- Pups with detectable T. gondii DNA in their brain (number) (T. gondii oocysts): 4 out of 55
- Pup survival rate (N. caninum): 80%

Structure (SMILES): CC(C)(CO)Cn1nc(-c2ccc3cc(OC4CC4)ccc3c2)c(C(N)=O)c1N [BKI-1708]
- IC50 (Nc-β-gal tachyzoites; Neospora caninum, 72 h, read-out: IC50 Nc-β-gal Pre-infection, compound added concomitantly to infection of HFF): 480 nM
- IC50 (Nc-β-gal tachyzoites; Neospora caninum, read-out: IC50 Nc-β-gal Post-infection, compound added 3 h after infection of HFF): 964 nM
- IC50 (Nc-β-gal tachyzoites; read-out: IC50 Nc-β-gal Pre-infection, compound added concomitantly to infection of HFF): 481 nM
- Vertical transmission rate (%) [1]: 38%
- IC50 (Tg-β-gal tachyzoites; Toxoplasma gondii, 72 h, read-out: IC50 Tg-β-gal Pre-infection, compound added concomitantly to infection of HFF): 120 nM
- IC50 (Tg-β-gal tachyzoites; Toxoplasma gondii, read-out: IC50 Tg-β-gal Post-infection, compound added 3 h after infection of HFF): 327 nM
- IC50 (Tg-β-gal tachyzoites; read-out: IC50 Tg-β-gal Pre-infection, compound added concomitantly to infection of HFF): 122 nM

Structure (SMILES): N#CC(c1ccc(Cl)cc1)c1c(Cl)cc(-n2ncc(=O)[nH]c2=O)cc1Cl (stereo not drawn) [diclazuril]
- Morphological effect on T. gondii (T. gondii; ref Lindsay et al., 1995): formation of multinucleated forms

— publication PMC11254172 (International Journal for Parasitology: Drugs and Drug …, 2024)
